Laboratory results taken from PubChem BioAssay AID1208 (EPA DSSTox, 2008).
The source made the active and inactive calls.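 The calls were made as follows: active = at least one rat sex group has a carcinogenic potency value and tumor site recorded; inconclusive = only rat studies were judged inadequate by the national testing program; inactive = no potency or tumor site, with negative rat experiments.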

Tested on: rat chronic carcinogenicity bioassay, TD50
Assay: DSSTox (CPDBAS) Carcinogenic Potency Database Summary Rat Bioassay Results
Conditions: for Potency: stronger effect = lower value
Summary of the method: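 The activity score maps log10(1/TD50_Rat_mmol) linearly onto 1–100; actives without a computed TD50, such as mixtures, receive 50. Source data are chronic rat carcinogenicity tests, using the most positive experiment for each sex.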

[1] = TD50_Rat_Note: no positive results, TargetSites_Rat_Female: no positive results
[2] = TargetSites_Rat_Female: no positive results
[3] = TD50_Rat_Note: no positive results
[4] = TD50_Rat_Note: only experiment is NCI/NTP bioassay inadequate, TargetSites_Rat_Female: NTP bioassay inadequate
[5] = TD50_Rat_Note: positive test results only by intraperitoneal or intravenous injection

Row | Compound | outcome [1] | further results
1 | NC(=O)/C(=C\c1ccc([N+](=O)[O-])o1)c1ccco1 |  | Potency (TD50_Rat_Note: TD50 is harmonic mean of more than one positive test, greater than ten-fold variation among TD50 values for positive res, TargetSites_Rat_Female: mammary gland): 29.4 mg/kg/day
2 | Clc1ccccc1Cl | inactive; no positive results | 
3 | O=C(C1CCCCC1)N1CC(=O)N2CCc3ccccc3C2C1 (stereo unspecified) | inactive; no positive results | 
4 | [Cd+2].[Cl-].[Cl-] |  | Potency (TD50_Rat_Note: TD50 is harmonic mean of more than one positive test, greater than ten-fold variation among TD50 values for positive res, TargetSites_Rat_Female: lung): 0.0136 mg/kg/day
5 | C1CCNCC1 | inactive; no positive results | 
6 | NCCS(=O)(=O)O | inactive; no positive results | 
7 | O=C1C(O)N=C(c2ccccc2F)c2cc(Cl)ccc2N1CCO (stereo unspecified) | inactive; no positive results | 
8 | CCN(CC)N=O |  | Potency (TD50_Rat_Note: TD50 is harmonic mean of more than one positive test, greater than ten-fold variation among TD50 values for positive res, TargetSites_Rat_Female: esophagus, liver, oral cavity, stomach): 0.0265 mg/kg/day
9 | CCc1cc(C(N)=S)ccn1 | inactive; no positive results | 
10 | Cc1cccn2c1nc1ccc(N)nc12 |  | Potency (TD50_Rat_Note: TD50 is harmonic mean of more than one positive test, TargetSites_Rat_Female: clitoral gland, ear Zymbals gland, large intestine, liver, nervous system, small intestine): 4.69 mg/kg/day
11 | O=NN1CCOC(O)C1 (stereo unspecified) | inactive | 
12 | Nc1cc(S(=O)(=O)[O-])cc2cc(S(=O)(=O)[O-])c(N=Nc3ccc(-c4ccc(N=Nc5c(S(=O)(=O)[O-])cc6cc(S(=O)(=O)[O-])cc(N)c6c5O)c(O)c4)cc3O)c(O)c12.[Cu].[Cu].[Na+].[Na+].[Na+].[Na+] |  | Potency [2]: 1570 mg/kg/day
13 | O=[N+]([O-])c1cc(N(CCO)CCO)ccc1NCCO | inactive; no positive results | 
14 | CC(=O)Nc1ccc(OCC(O)CNC(C)C)cc1 (stereo unspecified) | inactive; no positive results | 
15 | CC(=O)N[C@@H](CS)C(=O)O |  | outcome [3]: inactive; no positive results
16 | CCCc1cc(=O)[nH]c(=S)[nH]1 |  | Potency (TD50_Rat_Note: TD50 is harmonic mean of more than one positive test, TargetSites_Rat_Female: thyroid gland): 13.7 mg/kg/day
17 | O=C1CCCCCN1 | inactive; no positive results | 
18 | CC(Cl)CCl (stereo unspecified) | inactive; no positive results | 
19 | CCCC(CCC)C(=O)O |  | Potency (TargetSites_Rat_Female: uterus): 1300 mg/kg/day
20 | COC(=O)NN | inactive; no positive results | 
21 | CCN(CC)c1cc2oc3cc(=[N+](CC)CC)c(C)cc-3c(-c3ccc(S(=O)(=O)O)cc3S(=O)(=O)[O-])c2cc1C | inactive; no positive results | 
22 | CC1=C(/C=C/C(C)=C/C=C/C(C)=C/C=C/C=C(C)/C=C/C=C(C)/C=C/C2=C(C)CCCC2(C)C)C(C)(C)CCC1 |  | outcome [3]: inactive; no positive results
23 | O=NN(CCCl)C(=O)N[C@@H]1[C@@H](O)[C@H](O)[C@@H](CO)O[C@@H]1O |  | Potency (TD50_Rat_Note: positive test results only by intraperitoneal or intravenous injection, TD50 is harmonic mean of more than one positive, TargetSites_Rat_Female: peritoneal cavity): 0.0375 mg/kg/day

Row | Compound | outcome [1] | further results
24 | C[C@H]1C(=O)O[C@@H]2CCN3CC=C(COC(=O)[C@](C)(O)[C@]1(C)O)[C@H]23 |  | Potency (TD50_Rat_Note: TD50 is harmonic mean of more than one positive test): 0.94 mg/kg/day
25 | CC(C)n1c(/C=C/[C@@H](O)C[C@@H](O)CC(=O)O)c(-c2ccc(F)cc2)c2ccccc21 |  | Potency [2]: 125 mg/kg/day
26 | COc1cc(S(C)=O)ccc1-c1nc2ccncc2[nH]1 (stereo unspecified) |  | Potency (TD50_Rat_Note: TD50 is harmonic mean of more than one positive test, TargetSites_Rat_Female: adrenal gland): 70.5 mg/kg/day
27 | CC(C)C=O | inactive; no positive results | 
28 | CC1(C)[C@@H](O)CC[C@]2(C)[C@H]3C(=O)C=C4[C@@H]5C[C@@](C)(C(=O)O)CC[C@]5(C)CC[C@@]4(C)[C@]3(C)CC[C@@H]12 |  | outcome [3]: inactive; no positive results
29 | O=[N+]([O-])c1ccc(-c2nc(N3CCOCC3)c3ccccc3n2)s1 |  | Potency (TargetSites_Rat_Female: all tumor bearing animals): 5.03 mg/kg/day
30 | C=CC1CC=CCC1 (stereo unspecified) |  | outcome [4]: ntp bioassay inadequate
31 | CCCCN(N=O)C(N)=O |  | Potency (TD50_Rat_Note: TD50 is harmonic mean of more than one positive test, greater than ten-fold variation among TD50 values for positive res, TargetSites_Rat_Female: esophagus, ear Zymbals gland, hematopoietic system, large intestine, lung, mammary gland, stomach, uterus, vagina): 0.517 mg/kg/day
32 | CC(=O)Nc1ccc2c(c1)Cc1ccccc1-2 |  | Potency (TD50_Rat_Note: TD50 is harmonic mean of more than one positive test, TargetSites_Rat_Female: liver, mammary gland, skin): 1.22 mg/kg/day
33 | Nc1ccc(O)c([N+](=O)[O-])c1 |  | Potency [2]: 309 mg/kg/day
34 | c1ccc(Nc2ccc3ccccc3c2)cc1 | inactive; no positive results | 
35 | c1ccc2n[nH]nc2c1 | inactive; no positive results | 
36 | O=NN1CSCSC1 | inactive | 
37 | C=CCCl |  | outcome [4]: ntp bioassay inadequate
38 | CCN(CC)CC#CC(C)(C)OC(=O)C(O)(c1ccccc1)C1CCCCC1 (stereo unspecified) | inactive; no positive results | 
39 | Clc1c(Cl)c(Cl)c(Cl)c(Cl)c1Cl |  | Potency (TD50_Rat_Note: TD50 is harmonic mean of more than one positive test, harmonic mean of TD50 includes a value for upper 99% confidence li, TargetSites_Rat_Female: liver): 3.86 mg/kg/day
40 | C=CCOc1ccc(CC(=O)O)cc1Cl | inactive; no positive results | 
41 | CN1CCCC1=O | inactive; no positive results | 
42 | [N-]=[N+]=[N-] | inactive; no positive results | 
43 | C1CC2OC2CC1C1CO1 (stereo unspecified) | inactive | 
44 | C/C=C(\C)C(=O)O[C@@H]1CCN2CC=C(COC(=O)C(O)(C(C)C)C(C)O)[C@H]12 (stereo partly specified) |  | Potency [5]: 1.91 mg/kg/day
45 | CCCCC(CC)COP(=O)(OCC(CC)CCCC)OCC(CC)CCCC (stereo unspecified) | inactive; no positive results | 
46 | C/C=C1/C[C@@H](C)[C@@](C)(O)C(=O)OC/C2=C/CN(C)CC[C@@H](OC1=O)C2=O |  | Potency [5]: 1.7 mg/kg/day
